Measured values taken from patent EP4707280A1, “1,4-CINEOLE DERIVATIVE AND INTERMEDIATE THEREOF, HERBICIDE CONTAINING SAID DERIVATIVE AS ACTIVE INGREDIENT, METHOD FOR USING HERBICIDE, AND METHOD FOR PREPARING AGROCHEMICAL COMPOSITION” (HOKKO CHEMICAL INDUSTRY CO., LTD., priority 2023, dated 2024).

Legend:
Format in all cases: in vivo
[1] = test system: Digitaria ciliaris; experiment: Test Example 4: herbicidal effect test by stem and leaf treatment in upland field; settings: Digitaria ciliaris; 120 g per 10 ares; sprayed seven days after sowing, upland soil; 14 days after application; read-out: weed inhibition rate
[2] = test system: Echinochloa crus-galli var. formosensis; experiment: Test Example 1: herbicidal effect test by soil application in paddy rice; settings: Echinochloa crus-galli, soil, 336 h; 120 g active ingredient per 10 ares; applied immediately after sowing, flooded pots; 14 days after application; read-out: weed inhibition rate
Procedure, shortened: (§1)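 Pre-emergence paddy soil application, 120 g a.i./10 a, emulsifiable concentrate diluted in water, applied by dropper right after sowing. Seeds (30/species) sown 0–1 cm in puddled, fertilized soil; flooded ~3 cm; glass greenhouse.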

[3] = test system: Scirpus juncoides; experiment: as above; settings: Schoenoplectiella juncoides, soil, 336 h; 120 g active ingredient per 10 ares; applied immediately after sowing, flooded pots; 14 days after application; read-out: weed inhibition rate
Procedure, shortened: as §1

[4] = test system: Echinochloa crus-galli var. formosensis; experiment: Test Example 2: herbicidal effect test by application during growth period of paddy rice; settings: Echinochloa crus-galli; 120 g per 10 ares; applied seven days after sowing, flooded pots; 14 days after application; read-out: weed inhibition rate
Procedure, shortened: (§2)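 Weeds sown into puddled, flooded paddy soil received a post-emergence water application of emulsifiable concentrate at 120 g active ingredient per 10 ares, seven days after sowing. Herbicidal effect was rated 14 days later as inhibition (%).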

[5] = test system: Scirpus juncoides; experiment: as above; settings: Schoenoplectiella juncoides; 120 g per 10 ares; applied seven days after sowing, flooded pots; 14 days after application; read-out: weed inhibition rate
Procedure, shortened: as §2

[6] = test system: Digitaria ciliaris; experiment: Test Example 7: herbicidal effect test by soil application in upland field (low dose); settings: Digitaria ciliaris, 7.5 g per 10 ares, sprayed one day after sowing, 14 days after application, read-out: weed inhibition rate
Procedure, shortened: (§3)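 Low-dose soil treatment at 7.5 g a.i. per 10 a, applied as a diluted emulsifiable concentrate sprayed onto the soil surface one day after sowing in upland alluvial loam. Duplicate pots; percent weed inhibition is read 14 days after application.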

[7] = test system: Echinochloa crus-galli; experiment: as above; settings: Echinochloa crus-galli, 7.5 g per 10 ares, sprayed one day after sowing, 14 days after application, read-out: weed inhibition rate
Procedure, shortened: as §3

[8] = test system: Digitaria ciliaris; experiment: Test Example 8: herbicidal effect test by stem and leaf treatment in upland field (low dose); settings: Digitaria ciliaris; 7.5 g per 10 ares; sprayed seven days after sowing, upland soil; 14 days after application; read-out: weed inhibition rate
[9] = test system: Echinochloa crus-galli; experiment: as above; settings: Echinochloa crus-galli; 7.5 g per 10 ares; sprayed seven days after sowing, upland soil; 14 days after application; read-out: weed inhibition rate
[10] = test system: Echinochloa crus-galli var. formosensis; experiment: Test Example 6: herbicidal effect test by application during growth period of paddy rice (low dose); settings: Echinochloa crus-galli; 7.5 g per 10 ares; applied seven days after sowing, flooded pots; 14 days after application; read-out: weed inhibition rate
Procedure, shortened: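 Emulsifiable concentrate, water-diluted, dropped onto flooded paddy pots 7 days post-sowing at 7.5 g active ingredient/10 a. Greenhouse-grown weeds; percent inhibition scored at day 14 after treatment.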

[11] = test system: Digitaria ciliaris; experiment: Test Example 3: herbicidal effect test by soil application in upland field; settings: Digitaria ciliaris, 120 g per 10 ares, sprayed one day after sowing, 14 days after application, read-out: weed inhibition rate
Procedure, shortened: (§4)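 Weed inhibition (%) was assessed 14 days after treatment, in duplicate per concentration group. Seeds had been mixed into the upper 1 cm of upland alluvial loam, and the soil surface was sprayed one day later with the diluted emulsifiable concentrate at 120 g active ingredient per 10 ares.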

[12] = test system: Echinochloa crus-galli; experiment: as above; settings: Echinochloa crus-galli, 120 g per 10 ares, sprayed one day after sowing, 14 days after application, read-out: weed inhibition rate
Procedure, shortened: as §4

[13] = test system: Echinochloa crus-galli; experiment: Test Example 4: herbicidal effect test by stem and leaf treatment in upland field; settings: Echinochloa crus-galli; 120 g per 10 ares; sprayed seven days after sowing, upland soil; 14 days after application; read-out: weed inhibition rate
[14] = test system: Echinochloa crus-galli var. formosensis; experiment: Test Example 5: herbicidal effect test by soil application in paddy rice (low dose); settings: Echinochloa crus-galli, soil, 336 h; 7.5 g per 10 ares; applied immediately after sowing, flooded pots; 14 days after application; read-out: weed inhibition rate
Procedure, shortened: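 Pots of puddled, fertilized paddy soil receive 30 seeds per species at 0–1 cm depth and are flooded to about 3 cm. The diluted emulsifiable concentrate is then dropped onto the water, delivering 7.5 g active ingredient per 10 ares. Greenhouse grown; herbicidal effect scored 14 days later, two replicates.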

CC(C)C12CC(OCc3ccccc3Br)C(C)(CC1I)O2 (stereo not shown) [1-1427, 5-[(2-bromophenyl)methoxy]-2-iodo-1-isopropyl-4-methyl-7-oxabicyclo[2.2.1]heptane]
≥ 80%: inhibition at 1200 g/ha [1] | pest or weed control at 1200 g/ha [2] | pest or weed control at 1200 g/ha [3] | inhibition at 1200 g/ha [4] | inhibition at 1200 g/ha [5] | inhibition at 75 g/ha [6] | inhibition at 75 g/ha [7] | inhibition at 75 g/ha [8] | inhibition at 75 g/ha [9] | inhibition at 75 g/ha [10] | inhibition at 1200 g/ha [11] | inhibition at 1200 g/ha [12] | inhibition at 1200 g/ha [13] | inhibition at 75 g/ha [14]

CC(C)C12CC(OCc3ccccc3C#N)C(C)(CC1I)O2 (stereo not shown) [1-1436, 2-[(5-iodo-1-methyl-4-isopropyl-7-oxabicyclo[2.2.1]heptan-2-yl)oxymethyl]benzonitrile]
≥ 80%: inhibition at 1200 g/ha [1] | pest or weed control at 1200 g/ha [2] | pest or weed control at 1200 g/ha [3] | inhibition at 1200 g/ha [4] | inhibition at 1200 g/ha [5] | inhibition at 75 g/ha [6] | inhibition at 75 g/ha [7] | inhibition at 75 g/ha [8] | inhibition at 75 g/ha [9] | inhibition at 75 g/ha [10] | inhibition at 1200 g/ha [11] | inhibition at 1200 g/ha [12] | inhibition at 1200 g/ha [13] | inhibition at 75 g/ha [14]

Cc1cccc(C)c1COC1CC2(C(C)C)OC1(C)CC2I (stereo not shown) [1-1445, 5-[(2,6-dimethylphenyl)methoxy]-2-iodo-1-isopropyl-4-methyl-7-oxabicyclo[2.2.1]heptane]
≥ 80%: inhibition at 1200 g/ha [1] | pest or weed control at 1200 g/ha [2] | pest or weed control at 1200 g/ha [3] | inhibition at 1200 g/ha [4] | inhibition at 1200 g/ha [5] | inhibition at 75 g/ha [6] | inhibition at 75 g/ha [7] | inhibition at 75 g/ha [8] | inhibition at 75 g/ha [9] | inhibition at 75 g/ha [10] | inhibition at 1200 g/ha [11] | inhibition at 1200 g/ha [12] | inhibition at 1200 g/ha [13] | inhibition at 75 g/ha [14]

CC(C)C12CC(OCc3c(F)cccc3F)C(C)(CC1I)O2 (stereo not shown) [1-1446, 5-[(2,6-difluorophenyl)methoxy]-2-iodo-1-isopropyl-4-methyl-7-oxabicyclo[2.2.1]heptane]
≥ 80%: inhibition at 1200 g/ha [1] | pest or weed control at 1200 g/ha [2] | pest or weed control at 1200 g/ha [3] | inhibition at 1200 g/ha [4] | inhibition at 1200 g/ha [5] | inhibition at 75 g/ha [6] | inhibition at 75 g/ha [7] | inhibition at 75 g/ha [8] | inhibition at 75 g/ha [9] | inhibition at 75 g/ha [10] | inhibition at 1200 g/ha [11] | inhibition at 1200 g/ha [12] | inhibition at 1200 g/ha [13] | inhibition at 75 g/ha [14]

CC(C)C12CC(OCc3c(Cl)cccc3Cl)C(C)(CC1I)O2 (stereo not shown) [1-1447, 5-[(2,6-dichlorophenyl)methoxy]-2-iodo-1-isopropyl-4-methyl-7-oxabicyclo[2.2.1]heptane]
≥ 80%: inhibition at 1200 g/ha [1] | pest or weed control at 1200 g/ha [2] | pest or weed control at 1200 g/ha [3] | inhibition at 1200 g/ha [4] | inhibition at 1200 g/ha [5] | inhibition at 75 g/ha [6] | inhibition at 75 g/ha [7] | inhibition at 75 g/ha [8] | inhibition at 75 g/ha [9] | inhibition at 75 g/ha [10] | inhibition at 1200 g/ha [11] | inhibition at 1200 g/ha [12] | inhibition at 1200 g/ha [13] | inhibition at 75 g/ha [14]

CC(C)C12CC(OCc3c(F)cccc3Cl)C(C)(CC1I)O2 (stereo not shown) [1-1448, 5-[(2-chloro-6-fluoro-phenyl)methoxy]-2-iodo-1-isopropyl-4-methyl-7-oxabicyclo[2.2.1]heptane]
≥ 80%: inhibition at 1200 g/ha [1] | pest or weed control at 1200 g/ha [2] | pest or weed control at 1200 g/ha [3] | inhibition at 1200 g/ha [4] | inhibition at 1200 g/ha [5] | inhibition at 75 g/ha [6] | inhibition at 75 g/ha [7] | inhibition at 75 g/ha [8] | inhibition at 75 g/ha [9] | inhibition at 75 g/ha [10] | inhibition at 1200 g/ha [11] | inhibition at 1200 g/ha [12] | inhibition at 1200 g/ha [13] | inhibition at 75 g/ha [14]

CC(C)C12CC(OCc3cccs3)C(C)(CC1I)O2 (stereo not shown) [1-1456, 2-iodo-1-isopropyl-4-methyl-5-(2-thienylmethoxy)-7-oxabicyclo[2.2.1]heptane]
≥ 80%: inhibition at 1200 g/ha [1] | pest or weed control at 1200 g/ha [2] | pest or weed control at 1200 g/ha [3] | inhibition at 1200 g/ha [4] | inhibition at 1200 g/ha [5] | inhibition at 75 g/ha [6] | inhibition at 75 g/ha [7] | inhibition at 75 g/ha [8] | inhibition at 75 g/ha [9] | inhibition at 75 g/ha [10] | inhibition at 1200 g/ha [11] | inhibition at 1200 g/ha [12] | inhibition at 1200 g/ha [13] | inhibition at 75 g/ha [14]

CC(C)C12CC(OCc3ccsc3)C(C)(CC1I)O2 (stereo not shown) [1-1457, 2-iodo-1-isopropyl-4-methyl-5-(3-thienylmethoxy)-7-oxabicyclo[2.2.1]heptane]
≥ 80%: inhibition at 1200 g/ha [1] | pest or weed control at 1200 g/ha [2] | pest or weed control at 1200 g/ha [3] | inhibition at 1200 g/ha [4] | inhibition at 1200 g/ha [5] | inhibition at 75 g/ha [6] | inhibition at 75 g/ha [7] | inhibition at 75 g/ha [8] | inhibition at 75 g/ha [9] | inhibition at 75 g/ha [10] | inhibition at 1200 g/ha [11] | inhibition at 1200 g/ha [12] | inhibition at 1200 g/ha [13] | inhibition at 75 g/ha [14]

Cc1cccc(C)c1COC1CC2(C(C)C)OC1(C)CC2Cl (stereo not shown) [1-1610, 5-chloro-2-[(2,6-dimethylphenyl)methoxy]-1-methyl-4-isopropyl-7-oxabicyclo[2.2.1]heptane]
≥ 80%: inhibition at 1200 g/ha [1] | pest or weed control at 1200 g/ha [2] | pest or weed control at 1200 g/ha [3] | inhibition at 1200 g/ha [4] | inhibition at 1200 g/ha [5] | inhibition at 75 g/ha [6] | inhibition at 75 g/ha [7] | inhibition at 75 g/ha [8] | inhibition at 75 g/ha [9] | inhibition at 75 g/ha [10] | inhibition at 1200 g/ha [11] | inhibition at 1200 g/ha [12] | inhibition at 1200 g/ha [13] | inhibition at 75 g/ha [14]

CC(C)C12CC(OCc3c(F)cccc3Br)C(C)(CC1Cl)O2 (stereo not shown) [1-1611, 2-[(2-bromo-6-fluorophenyl)methoxy]-5-chloro-1-methyl-4-isopropyl-7-oxabicyclo[2.2.1]heptane]
≥ 80%: inhibition at 1200 g/ha [1] | pest or weed control at 1200 g/ha [2] | pest or weed control at 1200 g/ha [3] | inhibition at 1200 g/ha [4] | inhibition at 1200 g/ha [5] | inhibition at 75 g/ha [6] | inhibition at 75 g/ha [7] | inhibition at 75 g/ha [8] | inhibition at 75 g/ha [9] | inhibition at 75 g/ha [10] | inhibition at 1200 g/ha [11] | inhibition at 1200 g/ha [12] | inhibition at 1200 g/ha [13] | inhibition at 75 g/ha [14]

CC(C)C12CC(OCc3c(F)cccc3Br)C(C)(CC1I)O2 (stereo not shown) [1-1612, 5-[(2-bromo-6-fluoro-phenyl)methoxy]-2-iodo-1-isopropyl-4-methyl-7-oxabicyclo[2.2.1]heptane]
≥ 80%: inhibition at 1200 g/ha [1] | pest or weed control at 1200 g/ha [2] | pest or weed control at 1200 g/ha [3] | inhibition at 1200 g/ha [4] | inhibition at 1200 g/ha [5] | inhibition at 75 g/ha [6] | inhibition at 75 g/ha [7] | inhibition at 75 g/ha [8] | inhibition at 75 g/ha [9] | inhibition at 75 g/ha [10] | inhibition at 1200 g/ha [11] | inhibition at 1200 g/ha [12] | inhibition at 1200 g/ha [13] | inhibition at 75 g/ha [14]
